US20110212978A1 (AstraZeneca AB, priority 2005, published 2011)

Experiments:
[1] = tested on: MX-1 tumour xenografts; test: MX-1 human tumour xenograft growth in female athymic mice; format: in vivo; conditions: female nude mice; for Day 14 Median tumour volume / Day 14 geometric mean tumour volume: Day 14 after implantation (randomisation, start of treatment), ZD6474 25 mg/kg/day p.o., pemetrexed 75 mg/kg i.p.; for Day 28 Median tumour volume / Day 28 geometric mean tumour volume: ZD6474 25 mg/kg/day p.o. once daily, pemetrexed 75 mg/kg i.p. once daily days 14-18 and 21-25
Method: Tumour implantation procedures were performed on mice of at least 5 weeks of age. Human tumour xenografts were grown in female athymic (nu/nu genotype, Swiss) mice. MX-1 tumour fragments were implanted into athymic mice and allowed to grow to 0.7-1 cm^3 to provide donor tumour tissue. The donor tumours were surgically excised and smaller tumour fragments (20-30 mg) were implanted subcutaneously (s.c.) in the right flanks of the experimental athymic mice. When the mean tumour volume reached 0.1-0.3 cm^3, randomisation was carried out. […] An additional group of animals received a combination of pemetrexed and ZD6474, using the same doses and schedules as used for single agent treatment.
Tumour volumes were assessed at least twice weekly by bilateral Vernier caliper measurement. Growth inhibition from the start of treatment was assessed by comparison of the differences in tumour volume between control and treated groups.
Experiments were conducted on female athymic mice (Swiss nu/nu genotype, >6 weeks of age). MX-1 human tumour xenografts were established in mice from tumour cell implants. The donor tumours were surgically excised when they reached a volume of 0.7-1 cm^3, divided into fragments and frozen until further use. At the start of the experiment, fragments (approximately 30 mg) were thawed and implanted (subcutaneously in the dorsal flank) in the experimental animals. Tumour volumes were assessed at least twice weekly by bilateral Vernier calliper measurements. Mice were randomised into treatment groups when the tumour volume reached 0.1-0.2 cm^3. […] An additional group of animals received a combination of ZD6474 and pemetrexed, using the same doses and schedules as used for single agent treatment.
Tumour growth inhibition (TGI) from the start of treatment was assessed by comparison of the differences in tumour volume between control and treated groups.

[2] = tested on: VEGF RTK; conditions: cited from earlier work
[3] = tested on: tumour growth; conditions: range of models, once-daily oral administration; cited from earlier work

SMILES	Day 14 Median tumour volume [1]	Day 14 geometric mean tumour volume [1]	Day 28 Median tumour volume [1]	Day 28 geometric mean tumour volume [1]	Inhibition of VEGF RTK [2]	Anti-tumour activity [3]
COc1cc2c(Nc3ccc(Br)cc3F)ncnc2cc1OCC1CCN(C)CC1 [ZD6474, 4-(4-bromo-2-fluoroanilino)-6-methoxy-7-(1-methylpiperidin-4-ylmethoxy)quinazoline]	0.148 cm^3	0.148 cm^3	0.967 cm^3	0.702 cm^3	potent inhibitor	broad-spectrum anti-tumour activity
Nc1nc2[nH]cc(CCc3ccc(C(=O)N[C@@H](CCC(=O)[O-])C(=O)[O-])cc3)c2c(=O)[nH]1.[Na+].[Na+] [pemetrexed, L-Glutamic acid, N-[4-[2-(2-amino-4,7-dihydro-4-oxo-1H-pyffolo[2,3-d]pyrimidin-5-yl)ethyl]benzoyl]-, disodium salt, hetpahydrate]	0.147 cm^3	0.146 cm^3	0.794 cm^3	0.751 cm^3		
